Values of other authors, collected in patent US20240299549A1, “STABLE FORMULATIONS OF INDOCYANINE GREEN” (PROVEPHARM LIFE SOLUTIONS, priority 2021, published 2024).

Key:
[1] = 10 hours of storage in water and direct light
[2] = stored at 4° C. in the dark, three days

SMILES: CC1(C)C(/C=C/C=C/C=C/C=C2\N(CCCCS(=O)(=O)[O-])c3ccc4ccccc4c3C2(C)C)=[N+](CCCCS(=O)(=O)[O-])c2ccc3ccccc3c21.[Na+] [ICG, Indocyanine green]
- reduction of absorbance at spectral peak [1]: 10%
- fluorescence intensity lost [2]: 20%
